PMC6207720, “Identification and antitumor activity of a novel inhibitor of the NIMA-related kinase NEK6” (Scientific Reports, 2018)

Assays:
Type in all cases: biochemical
NEK2 = molecular target: T1, NEK2 (Homo sapiens, UniProt P51955); assay: Off-chip Mobility Shift Assay (MSA) profiling, NEK2; details: ATP approximating Km
T1 sequence (P51955 1-445): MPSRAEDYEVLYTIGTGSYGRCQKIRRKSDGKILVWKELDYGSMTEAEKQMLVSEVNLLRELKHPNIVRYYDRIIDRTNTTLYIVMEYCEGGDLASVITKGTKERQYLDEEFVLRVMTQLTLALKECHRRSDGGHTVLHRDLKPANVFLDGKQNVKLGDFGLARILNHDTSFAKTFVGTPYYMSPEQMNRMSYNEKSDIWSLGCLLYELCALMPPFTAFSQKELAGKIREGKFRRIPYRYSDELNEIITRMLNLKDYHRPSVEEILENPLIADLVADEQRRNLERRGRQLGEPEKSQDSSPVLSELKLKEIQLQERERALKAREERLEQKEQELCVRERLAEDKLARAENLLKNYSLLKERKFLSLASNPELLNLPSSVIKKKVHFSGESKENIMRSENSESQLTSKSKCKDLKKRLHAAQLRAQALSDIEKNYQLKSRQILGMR
Method: (§1) Therefore, we decided to evaluate the selectivity of compound 8 against a panel of NEK kinases at 10 µM, using the technique of Off-chip Mobility shift assay. This concentration was chosen according to the guidelines proposed by Knight and Shokat, since the probability of off-target effects increases dramatically above 10 µM[36]. Furthermore, ATP concentration was set to approximate the Km,ATP for each kinase, so that the resulting selectivity profile directly reflects the intrinsic affinities of the inhibitor[37]. […] A major consequence of this substitution may be the redistribution of surface charges at the flexible activation loop resulting in an altered electrostatic potential and ability of NEK6 kinase to interact with other molecules.
(§2) The inhibitory activity of compounds 8 and 21 on NEK6 was also verified with MSA technique (Off-chip Mobility shift assay) (CARNA Biosciences Study ID: CBS170097, CARNA Biosciences, Kobe). […] PKR Inhibitor was used as positive control. For profiling study against NEK kinases (i.e. NEK1, NEK2, NEK6, NEK7, NEK9) (CARNA Biosciences Study ID: CBS170098), 8 was tested at 10 μM and ATP concentration approximating Km for each kinase. Assay condition for kinases are available on “Kinase profiling book” downloading by www.carnabio.com (https://www.carnabio.com/output/pdf/ProfilingProfilingBook_en.pdf).

NEK6 = molecular target: T2, NEK6 (Homo sapiens, UniProt Q9HC98); assay: LANCE-Ultra NEK6 kinase assay; details: 100 µM ATP
T2 construct: purchased Carna 05-130
T2 sequence (Q9HC98 whole entry): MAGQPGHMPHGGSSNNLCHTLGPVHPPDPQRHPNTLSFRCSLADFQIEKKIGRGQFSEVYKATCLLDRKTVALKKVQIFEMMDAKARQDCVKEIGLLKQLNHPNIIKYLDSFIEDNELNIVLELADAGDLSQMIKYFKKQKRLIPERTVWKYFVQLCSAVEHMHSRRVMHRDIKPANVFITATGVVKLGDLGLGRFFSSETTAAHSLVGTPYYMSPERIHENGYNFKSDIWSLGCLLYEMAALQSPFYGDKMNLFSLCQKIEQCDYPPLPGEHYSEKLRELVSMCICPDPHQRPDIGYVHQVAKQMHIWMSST
Method: The twenty-five compounds resulting from virtual screening were firstly tested for the ability to inhibit the enzymatic activity of NEK6 at a single concentration of 30 µM, using LANCE technology. Quercetin, able to inhibit a broad panel of kinase, was used as positive control of inhibition[12],[30]. This initial screening allowed the identification of two compounds determining >70% NEK6 inhibition at 30 µM, i.e. compound 8 (6-hydroxy-4-methyl-2-oxo-5-[(5-phenyl (2-furyl)) methylene] pyridine-3-carbonitrile), and 21 (6-amino-2-phenyl-5,7,9-triazatetracyclo[8.7.0.0^3,^8 0^11,^16]heptadeca-1(10),3(8),6,11,13,15 hexaene-4,17-dione) (Fig. 4). […] The possible binding mode of compound 8 in the ATP-binding site of NEK6 as well as nonbonded interactions across the complex interface are shown in Fig. 6. Compound 8 may use its phenyl ring and furyl ring to form hydrophobic Pi-alkyl interactions with Ala72 (strand β3), Ala125 (hinge region) and Val59 (strand β2) of the ATP binding site (Fig. 6B). […] This is particulary relevant when considering that C–H···O hydrogen bonds play an important role in the ligand-binding process[33]–[35].
Compounds (i.e. 1 to 25) (Molport, Riga, LV-1011, Latvia) were dissolved in DMSO 100% as 10 mM stock and stored at −20 C. Activity of the compounds as NEK6 inhibitors was tested using LANCE NEK6 Ultra Kinase Assays protocol (U-TRF #25 technical note, PerkinElmer, Monza, MB). Compounds were first tested at 30 µM and incubated with 4 nM NEK6 (Carna, Chuo-ku, Kobe, Japan, # 05-130), 50 nM ULight-p70 S6K Peptide (PerkinElmer # TRF0126) and 100 μM ATP (Sigma-Aldrich, Saint Louis, U.S.A, # A2383) at room temperature. Kinase reactions were terminated after 90 minutes by the addition of EDTA and the signal was read with the Enspire plate reader (PerkinElmer) in TR-FRET mode (excitation at 320 nm and emission at 665 nm) after 60 minutes. Inhibition of NEK6 activity was calculated as percentage with respect to the control sample (100% of activity). Quercetin was used as positive control (Molport). […] For each compound the dose inhibiting 50% of NEK6 activity (IC50) was calculated using the GraphPad Prism 5.0 Software (San Diego, CA, USA).

NEK7 = NEK7 (Homo sapiens, UniProt Q8TDX7); assay: Off-chip Mobility Shift Assay (MSA) profiling, NEK7; details: ATP approximating Km
Sequence of NEK7 (Q8TDX7 whole entry): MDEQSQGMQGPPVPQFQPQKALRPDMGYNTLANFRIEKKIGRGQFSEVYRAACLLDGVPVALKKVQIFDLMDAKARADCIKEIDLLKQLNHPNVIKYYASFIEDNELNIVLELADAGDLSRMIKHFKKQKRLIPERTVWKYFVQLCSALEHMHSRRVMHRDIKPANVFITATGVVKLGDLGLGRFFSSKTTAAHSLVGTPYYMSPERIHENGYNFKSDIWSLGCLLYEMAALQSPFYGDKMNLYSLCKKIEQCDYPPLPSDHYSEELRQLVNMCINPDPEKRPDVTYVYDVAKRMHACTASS
Method: as §1, §2

inhibition at 10 µM (NEK2): ≤ 0%
IC50 (NEK6; LANCE-Ultra, mean ± SEM of 4 independent experiments): 3.4 ± 1.2 µM
inhibition at 30 µM (NEK6; single concentration 30 µM, LANCE): > 70%
inhibition at 10 µM (NEK7): ≤ 0%
SMILES: CC1=C(C#N)C(O)=NC(=O)/C1=C\c1ccc(-c2ccccc2)o1 [Compound 8, (5Z)-2-hydroxy-4-methyl-6-oxo-5-[(5-phenylfuran-2-yl)methylidene]-5,6-dihydropyridine-3-carbonitrile]
